The values below come from patent publication US3962446A, “Analgesic compositions containing 2-cyanoalkylbenzomorphan derivatives and salts thereof” (priority 1971, dated 1976).

Data set [1] in a line: Subcutaneous writhing test (antagonism of the syndrome produced by intraperitoneal acetic acid). The class given is in vivo, mice. The settings on record: Mus musculus, sc. As for the experimental part: […]. Note: The test was based on the specific antagonism of the test compound to the typical syndrome produced by intraperitoneal injection of 0.6% aqueous acetic acid. The syndrome was characterized by intermittent contractions of the abdomen, twisting and turning of the trunk and extension of the hind legs. A group of 5 mice was used for each dose level. The test compound was administered subcutaneously 20 minutes before the injection of acetic acid. […] The ED50 value was calculated according to the Litchfeld-Wilcoxon's method.
A general note: Writhing tests count abdominal constrictions after an irritant is injected.

A short description of data set [2]: Long term animal tests for addiction / physical dependency (daily oral or subcutaneous administration for over one month). As to conditions: rats, orally or subcutaneously every day for over one month. Type of data set: in vivo. The source says:
On account of this addiction liability, these analgesics are severely restricted in a therapeutic use.

Data set [3] can be described thus: Abstinence syndrome (bodyweight decrease) on the day after drug withdrawal following 4 weeks of subcutaneous dosing. Type of data set: in vivo, male rats of Wistar strain. Also noted: key: +++: severe decrease (about 5% decrease); ++: moderate decrease; +: mild decrease; -: no decrease. As to conditions: male Wistar rats, 20 mg/kg/day for 4 weeks, subcutaneous twice a day. As for the experimental part: Compound for 4 weeks) syndrome
Note: Groups of male rats of Wistar strain (bodyweight, 150 g), each grou
consisting of 20 male rats, were subcutaneously given the test compound
twice a day for 4 consecutive weeks. On the next day after drug
withdrawal, the bodyweight was measured. The symbols have the following
meanings: +++, severe decrease (about 5% decrease); ++, moderate decrease
+, mild decrease; -, no decrease. The marked decrease is taken as an […]

The conditions of data set [4]: cited from earlier work.
Setting [5] is: mice, subcutaneous, 20 minutes before 0.6% acetic acid i.p., Litchfeld-Wilcoxon's method, read-out: ED50.

Read-outs that look alike come from different tables or passages of the source.

Consider `CC(=O)Oc1ccc2c(c1)C1(C)CCN(CCC#N)C(C2)C1C` (stereo not drawn) [2'-Acetoxy-2-(β-cyanoethyl)-5,9-dimethyl-6,7-benzomorphan], for which the ED50 (commonly the dose that gives a 50% effect, or the effect in half of the subjects) in data set [1] (setting [5]) came to 0.5 mg/kg. Moreover, the “addiction / physical dependency” value in data set [2] is given as “do not show addiction in long term animal tests”. Also, the Abstinence syndrome entry in data set [3] is given as “-”.
For the molecule `CC1C2Cc3ccc(O)cc3C1(C)CCN2C` (centres unmarked) [2'-Hydroxy-2,5,9-trimethyl-6,7-benzomorphan, reference compound], in data set [1] (setting [5]), the ED50 came out at 3.5 mg/kg. For the same molecule, the addiction liability entry in data set [4] (prior art compounds) is on record as “show an addiction liability”. Besides, the analgesic activity entry in data set [4] (prior art, U.S. Pat. No. 3,138,603) is reported as “potent analgesic activity”. The Abstinence syndrome result in data set [3] was “++”.
For the molecule `CC1C2Cc3ccc(O)cc3C1(C)CCN2CCC#N` (stereo not drawn) [2'-Hydroxy-2-(β-cyanoethyl)-5,9-dimethyl-6,7-benzomorphan], the ED50 in data set [1] (setting [5]) was determined as 0.9 mg/kg. The “addiction / physical dependency” value in data set [2] is listed as “do not show addiction in long term animal tests”. Also, in data set [3], the Abstinence syndrome entry was “-”.
Turning to `CC12CCN(CCC#N)C(Cc3ccc(O)cc31)C2` (stereo not drawn) [2'-Hydroxy-2-(β-cyanoethyl)-5-methyl-6,7-benzomorphan], the ED50 in data set [1] (setting [5]) was 2.9 mg/kg. Moreover, the “addiction / physical dependency” value in data set [2] is recorded as “do not show addiction in long term animal tests”. Also, the Abstinence syndrome result in data set [3] is on record as “-”.
With `CC1C2Cc3ccc(O)cc3C1(C)CCN2CCCC#N` (centres unmarked) [2'-Hydroxy-2-(γ-cyanopropyl)-5,9-dimethyl-6,7-benzomorphan], the ED50 in data set [1] (setting [5]) amounted to 3 mg/kg. Besides, in data set [3], the Abstinence syndrome result is “-”.
For `CCC1C2Cc3ccc(O)cc3C1(C)CCN2CCCC#N` (centres unmarked) [2'-Hydroxy-2-(γ-cyanopropyl)-5-methyl-9-ethyl-6,7-benzomorphan] the same measures were 1.5 mg/kg and “-”.
As for `CCC1C2Cc3ccc(O)cc3C1(CC)CCN2CCCC#N` (centres unmarked) [2'-hydroxy-2-(γ-cyanopropyl)-5,9-diethyl-6,7-benzomorphan], the ED50 in data set [1] (setting [5]) turned out to be 0.3 mg/kg. Further, the Abstinence syndrome result in data set [3] is on record as “-”.
On to `CCC12CCN(CCCC#N)C(Cc3ccc(O)cc31)C2C` (centres unmarked) [2'-hydroxy-2-(γ-cyanopropyl)-5-ethyl-9-methyl-6,7-benzomorphan], for which the ED50 in data set [1] (setting [5]) came to 0.19 mg/kg. In data set [2], the “addiction / physical dependency” value is given as “do not show addiction in long term animal tests”. Moreover, the Abstinence syndrome result in data set [3] is “-”.
In the case of `CC12CCN(CCC#N)C(Cc3ccccc31)C2` (stereo not drawn) [2-(β-Cyanoethyl)-5-methyl-6,7-benzomorphan], in data set [3], the Abstinence syndrome entry is “-”.
As for `COc1ccc2c3c1O[C@H]1[C@@H](O)C=C[C@H]4[C@@H](C2)N(C)CC[C@@]341` [Methylmorphine, reference compound], the ED50 in data set [1] (setting [5]) was determined as 14 mg/kg.
Molecule `CN1CC[C@]23c4c5ccc(O)c4O[C@H]2[C@@H](O)C=C[C@H]3[C@H]1C5` [Morphine, reference compound] registered an ED50 in data set [1] of 1.4 mg/kg.
As for `CC(C)=CCN1CCC2(C)c3cc(O)ccc3CC1C2C` (centres unmarked) [Pentazocine, 2'-hydroxy-2-(3"-methyl-2"-butenyl)-5,9-dimethyl-6,7-benzomorphan, reference compound], the ED50 in data set [1] (setting [5]) amounted to 17.5 mg/kg.
